{"source": "patent US4284635A", "about": "“Analgesic 1,2,4,5-tetra-alkyl-4-arylpiperidines” (Eli Lilly and Company, priority 1978, dated 1981)", "data": [{"experiment": "rat-tail jerk assay (rats subjected to a heat sensation)", "format": "in vivo", "conditions": "subcutaneous", "source_text": "The analgesic activity of a number of compounds provided by this invention has been determined in the standard rat-tail jerk assay and the mouse writhing assay. The results in the mouse writhing assay are presented as the effective dose in mg./kg. of the tested compound required to inhibit induced writhing in the test animals by fifty percent (ED50). Results are presented in Column II for both subcutaneous (S.C.) and oral (p.o.) administration of the test compound recited in Column I.\nColumn III presents the effects of the claimed compounds on rats subjected to a heat sensation. The compounds recited in column I were administered subcutaneously to the test animals. The test results are reported as the minimum effective dose (MED) of compound in mg./kg. needed to delay response to the pain stimulus by one second compared to control animals.", "units": {"Rat Tail Jerk MED 1 sec. (minimum effective dose needed to delay response to the pain stimulus by one second compared to control animals)": "mg/kg"}, "values": [{"smiles": "CC1CC(C)(c2cccc(O)c2)C(C)CN1C", "note": "(centres unmarked) [1,2,4,5-Tetramethyl-4-(3-hydroxyphenyl)piperidine]", "Rat Tail Jerk MED 1 sec. (minimum effective dose needed to delay response to the pain stimulus by one second compared to control animals)": 1}, {"smiles": "COc1cccc(C2(C)CC(C)N(C)CC2C)c1", "note": "(centres unmarked) [1,2,4,5-Tetramethyl-4-(3-methoxyphenyl)piperidine]", "Rat Tail Jerk MED 1 sec. (minimum effective dose needed to delay response to the pain stimulus by one second compared to control animals)": 10}, {"smiles": "CCCC1(c2cccc(OC)c2)CC(C)N(C)CC1C", "note": "(centres unmarked) [1,2,5-Trimethyl-4-n-propyl-4-(3-methoxyphenyl)piperidine]", "Rat Tail Jerk MED 1 sec. (minimum effective dose needed to delay response to the pain stimulus by one second compared to control animals)": 2}, {"smiles": "CCCC1(c2cccc(O)c2)CC(C)N(C)CC1C", "note": "(centres unmarked) [1,2,5-trimethyl-4-n-propyl-4-(3-hydroxyphenyl)piperidine]", "Rat Tail Jerk MED 1 sec. (minimum effective dose needed to delay response to the pain stimulus by one second compared to control animals)": 20}, {"smiles": "CCOC(=O)C1(c2ccccc2)CCN(C)CC1", "note": "[Meperidine, reference compound]", "Rat Tail Jerk MED 1 sec. (minimum effective dose needed to delay response to the pain stimulus by one second compared to control animals)": 3.0}]}]}
